From PMC11607671, “Antiviral activity of cathelicidins against porcine epidemic diarrhea virus (PEDV): Mechanisms, and efficacy” (Virus Research, 2024)

How the values were obtained:
PEDV-GFP [1] = assay: Co-incubation antiviral assay, PEDV-GFP MOI=0.3, Vero cells (fluorescence microscopy and flow cytometry); assay type: cell-based, Porcine epidemic diarrhea virus
Protocol: (§1) In order to determine the effect of AMPs on the infectivity of PEDV, Vero cells (5 × 10^5 per well) were seeded in 12-well plates and cultured overnight at 37 °C, 5% CO2. In a co-incubation of virus and AMPs experiments (Fig. 2A), the mixture of AMPs (0–10 µM) and PEDV-GFP (MOI= 0.3) in a 1 mL volume of DMEM (P/S + 10% FCS) was added to the cells and incubated at 37 °C. After 2 h, the supernatant was replaced with fresh DMEM (P/S + 10% FCS) and incubated for 24 h. Subsequently, the cells were washed 2 times with flow cytometry buffer (500 mL PBS+ 10 mL FCS+ 250 µL of 10% NaN3) and were imaged with an EVOS M5000 Imaging System for semi-quantitative determination of infectivity. Eventually, cells were carefully detached by 2.5% trypsin, stained with ViaKrome 808 fixable viability dye (1:1000), and incubated for 30 min at 4 °C. Following washing, the cells were fixed using 50 µL of 4% PFA for 10 min, and a minimum of 1 × 10^5 cells were acquired using the CytoFLEX LX Flow Cytometer (FC)(Beckman Coulter, USA). Data was analyzed using FlowJo software v.10.6 (Flowjo LCC, Ashland, OR, USA).
Fig. 2 Effect of AMPs on the infectivity of PEDV (MOI=0.3). A) Experimental set-up of the ‘co-incubation assay’; Vero cells were subjected to 2 h exposure to a combination of AMPs and PEDV-GFP. Afterward, the supernatant was replaced, and the cells were incubated for an additional 24 h B) Fluorescent microscopy (20 × magnification) was performed to visualize the fluorescence signal of GFP in the presence of 1, 5, and 10 µM AMPs. The cell-only sample consists exclusively of cells while the no-peptide sample contains only PEDV-GFP, with no peptides present.
Fig. 3 Antiviral activity of AMPs as determined by flow cytometry (FC). A) The percentage of GFP-positive cells following a 2 h incubation with a combination of PEDV and AMPs. […] The values reported here depict the average ± SD derived from three independent experiments performed in duplicate. * p < 0.05; ** p < 0.01.

PEDV-GFP [2] = assay: Co-incubation antiviral assay of the extended AMP panel and of FL LL-37; assay type: cell-based, Porcine epidemic diarrhea virus; details: co-incubation with PEDV-GFP, 1 and 5 µM, 3 h, FC; two independent experiments in duplicate; Fig. 5
Protocol: as §1
This extended panel of AMPs encompassed chicken-derived peptides (D-CATH-2, l-CATH-2), mouse-derived peptide (CRAMP), horse-derived peptides (eCATH-1, eCATH-3), parrot-derived peptides (ER2, ER3, AG3), and synthetic peptides (CR165, CR174), all of which were readily accessible within our laboratory. As previously described, these AMPs were co-incubated with PEDV.
Fig. 5 Antiviral effects of a diverse group of AMPs on PEDV infection. Vero cells were incubated for 3 h with a combination of PEDV-GFP and AMPs, as described previously. FC was utilized to assess the inhibitory impact of AMPs.
Figure S4. The antiviral activity of FL LL-37 (fluorogenic LL-37 ) and unlabeled LL-37. Peptides were co-incubated at 1 and 5 µM with PEDV and added to Vero cells for 3 h, followed by FC analysis to examine the infectivity.

PEDV = assay: Transmission electron microscopy of peptide-treated virus; parameters: species or system Porcine epidemic diarrhea virus; details: PEDV treated with 10 µM peptide, negative stain, Fig. 9
Protocol: PEDV was treated with CATH-B1, LL-37, PMAP-23, and PMAP-36 for one minute at 37 °C. Subsequently, 10 µL of the sample was placed onto a freshly carbon-coated copper grid. The grids were washed 3 times with PBS and then fixed with 1% glutaraldehyde (Sigma-Aldrich, St. Louis, MO, USA) in PBS for 10 min. Following this fixation, the grids were rinsed 2 times with PBS and 4 times with MilliQ water. They were stained for 5 min in Uranyl Acetate (pH 7) then briefly washed with methylcellulose/uranyl acetate (pH 4) and incubated for 5 min on ice. Finally, the grids were looped out of the solution and air-dried. The samples were subsequently examined in a JEM1010 (JEOL) equipped with a Veleta 2k × 2k CCD camera (EMSIS, Munster, Germany).
Fig. 9 The effect of AMPs on the morphology of the virus. PEDV (MOI=0.3), which was pre-incubated with peptides. TEM images were taken of PEDV alone (A–D), PEDV treated with 10 µM LL-37 (E-H), PEDV treated with 10 µM CATH-B1 (I-L), PEDV treated with 10 µM PMAP-23 (M, N), and PEDV treated with 10 µM PMAP-36 (O, P). […] Micrographs were captured with a pixel size of 0,5 nm and analyzed visually using ImageJ. The micrographs are representative of observations from three independent experiments. Scale bars represent 100 nm.

PEDV-GFP [3] = assay: Post-incubation (post-treatment) antiviral assay; assay type: cell-based, Porcine epidemic diarrhea virus; details: Vero cells exposed to PEDV-GFP 2 h, washed, then AMPs for 3 h; FC; Fig. 7B, C
Protocol: In post-incubation assays (Fig. 7A), cells were initially exposed to the virus for 2 h, washed 2times with PBS and subsequently treated with AMPs for 3 h Both for pre- and post-infection assays, after the respective incubation periods, the cells were assessed using fluorescence microscopy and quantified using FC as described above.
Fig. 7 Effects of AMPs in post-incubation assay. A) Design and setup of post-incubation assay. B) The percentage of GFP-positive cells was quantified using FC during post-incubation. C) The FC histogram illustrates the fluorescence intensity of GFP after treatment with CATH-B1 and LL-37. […] The reported values represent the mean ± SD derived from three independent experiments performed in triplicate.

LLGDFFRKSKEKIGKEFKRIVQRIKDFLRNLVPRTES [LL-37, human cathelicidin antimicrobial peptide, 37 residues]
percentage of GFP-positive cells (FC), co-incubation (PEDV-GFP [1]; 10 µM peptide, PEDV-GFP MOI=0.3, 2 h co-incubation then 24 h, no-peptide control approximately 35%, three independent experiments in duplicate, Fig. 3A): 1–2% | infected cells by fluorescent microscopy, co-incubation (PEDV-GFP [1]; PEDV-GFP MOI=0.3, 5 and 10 µM peptide, 2 h co-incubation then 24 h, compared to control without peptide, Fig. 2B): reduced numbers of infected cells | prevention of PEDV-GFP entry into Vero cells, extended AMP panel, in words (PEDV-GFP [2]): strong antiviral activity | virus aggregation (TEM) (PEDV): in some cases, extensive virus aggregation | effect on virus morphology / membrane (TEM) (PEDV; one minute at 37 °C): significant membrane disruption | antiviral activity in post-incubation assay, in words (PEDV-GFP [3]): very moderate effect
